Experimental data taken from patent EP1913949A1, “Modulation of substrate preference by selective translocation of the major cardiac glucose transporter Glut4” (priority 2006, dated 2008).
Where two headings read alike, the source gives them in different places.

Key:
[1] = system: heart-derived giant vesicles; assay: glucose uptake by giant vesicles (intrinsic transporter activity); type: biochemical, rat; details: for glucose uptake into giant vesicles inhibited: inhibitor 10 µM
p38 MAPK [2] = system: p38 MAPK
cardiac myocytes [3] = details: for effect on LCFA uptake: in the absence or in the presence of insulin or arsenite, SB202190 (10 µM), PD98059 (10 µM), rapamycin (100 nM)
Akt/PKB = type: cell-based, rat; details: for effect on Akt/PKB phosphorylation: 20 min
cardiac myocytes [4] = system: cardiac myocytes
ACC [5] = system: ACC
cardiac myocytes [6] = assay: tissue or blood; details: Rattus norvegicus
CD36 = type: cell-based, rat
FABPpm = type: cell-based, rat
ACC [7] = assay: cells; details: Rattus norvegicus, 20 min, read-out: increase in phosphorylation of ACC
p38 MAPK [8] = assay: cells; details: Rattus norvegicus, 20 min, read-out: increase in p38 MAPK phosphorylation
AMPK [9] = assay: cells; details: Rattus norvegicus, 20 min, read-out: increase in phosphorylation of AMPK
AMPK [10] = details: 20 min
[11] = system: heart-derived giant vesicles; type: biochemical, rat
[12] = SB202190, PD98059 10 µM, rapamycin 20 nM, wortmannin 200 nM, stimulus 100 µM arsenite
[13] = SB202190, SB203580, PD98059 10 µM, rapamycin 20 nM, stimulus 100 µM arsenite
[14] = SB202190, PD98059 10 µM, rapamycin 20 nM, wortmannin 200 nM, stimulus 100 nM insulin
[15] = PD98059 (10 µM), rapamycin (100 nM), wortmannin (200 nM), no stimulus
[16] = SB202190, PD98059 10 µM, rapamycin 20 nM, wortmannin 200 nM, stimulus 5 µM oligomycin
[17] = SB202190, PD98059 10 µM, rapamycin 20 nM, wortmannin 200 nM, stimulus 50 µM phenylephrine
[18] = read-out: basal glucose uptake inhibited
[19] = read-out: glucose uptake inhibited in cardiac myocytes
[20] = read-out: glucose uptake inhibited in the presence of arsenite
[21] = read-out: glucose uptake inhibited in the presence of insulin
[22] = 10 µM SB202190 added 20 min prior to 100 µM arsenite

COc1cccc(-c2cc(=O)c3ccccc3o2)c1N [PD98059]
inhibition of arsenite-induced p70 S6K phosphorylation (p70 S6K; [12]): did not inhibit
effect on glucose uptake into giant vesicles ([1]; same concentrations as in cardiac myocyte studies, added 20 min prior): did not alter
inhibition of arsenite-stimulated p38 MAPK phosphorylation (p38 MAPK [2]; [13]): did not inhibit
effect on LCFA uptake (cardiac myocytes [3]): neither SB202190, nor PD98059 or rapamycin were able to influence
inhibition of insulin-induced Akt/PKB phosphorylation (Akt/PKB; [14]): did not inhibit
effect on arsenite-stimulated glucose uptake (cardiac myocytes [4]; PD98059 (10 µM), rapamycin (100 nM), wortmannin (200 nM), 100 µM arsenite): neither PD98059 nor rapamycin affected glucose uptake
effect on insulin-stimulated glucose uptake (cardiac myocytes [4]; PD98059 (10 µM), rapamycin (100 nM), wortmannin (200 nM), insulin): neither PD98059 nor rapamycin affected glucose uptake
effect on basal glucose uptake (cardiac myocytes [4]; [15]): no effect
inhibition of oligomycin-induced ACC phosphorylation (ACC [5]; [16]): did not inhibit
inhibition of phenylephrine-induced p42/44 ERK phosphorylation (p42/44 ERK; [17]): completely inhibited

Oc1ccc(-c2nc(-c3ccncc3)c(-c3ccc(F)cc3)[nH]2)cc1 [SB202190]
inhibition of arsenite-induced p70 S6K phosphorylation (p70 S6K; [12]): did not affect
glucose uptake into giant vesicles inhibited ([1]; added 20 min prior): -27%
inhibition at 10 µM (cardiac myocytes [6]; [18]): -45%
inhibition at 10 µM (cardiac myocytes [6]; [19]): -33%
inhibition at 10 µM (cardiac myocytes [6]; [20]): -42%
inhibition at 10 µM (cardiac myocytes [6]; [21]): -33%
inhibition of arsenite-stimulated p38 MAPK phosphorylation (p38 MAPK [2]; [13]): largely inhibited
effect on arsenite-induced GLUT4 translocation (GLUT4; [22]): did not affect
effect on subcellular distribution of CD36 (CD36; [22]): did not influence
effect on LCFA uptake (cardiac myocytes [3]): neither SB202190, nor PD98059 or rapamycin were able to influence
inhibition of insulin-induced Akt/PKB phosphorylation (Akt/PKB; [14]): did not affect
effect on subcellular distribution of FABPpm (FABPpm; [22]): did not influence
inhibition of oligomycin-induced ACC phosphorylation (ACC [5]; [16]): did not affect
inhibition of phenylephrine-induced p42/44 ERK phosphorylation (p42/44 ERK; [17]): did not affect

C[S+]([O-])c1ccc(-c2nc(-c3ccncc3)c(-c3ccc(F)cc3)[nH]2)cc1 (stereo not drawn) [SB203580]
glucose uptake into giant vesicles inhibited ([1]; added 20 min prior): -46%
inhibition at 10 µM (cardiac myocytes [6]; [18]): -56%
inhibition at 10 µM (cardiac myocytes [6]; [19]): -56%
inhibition at 10 µM (cardiac myocytes [6]; [20]): -57%
inhibition at 10 µM (cardiac myocytes [6]; [21]): -46%
inhibition of arsenite-stimulated p38 MAPK phosphorylation (p38 MAPK [2]): similarly potent in blocking

CC[C@H]1/C=C/C=C/C[C@@H](C)[C@H](O)[C@@](C)(O)C(=O)[C@@H](C)[C@H](O)[C@@H](C)C(=O)[C@@H](C)[C@H](O)[C@@H](C)/C=C/C(=O)O[C@@H]2[C@H](C)[C@H](CC1)O[C@]1(CC[C@H](C)[C@H](C[C@@H](C)O)O1)[C@H]2C [oligomycin]
effect on p70 S6K phosphorylation (p70 S6K; oligomycin): did not enhance
fold induction at 5 µM (cardiac myocytes [6]; read-out: glucose uptake increased): 2.9
fold induction at 5 µM (ACC [7]): > 10
effect on Akt/PKB phosphorylation (Akt/PKB; 5 µM oligomycin or 100 µM arsenite): did not increase
fold induction at 5 µM (p38 MAPK [8]): 5.7 ± 1.5
fold induction at 5 µM (AMPK [9]): > 10
effect on p42/44 ERK phosphorylation (p42/44 ERK; 20 min, 5 µM oligomycin): did not increase

CO[C@H]1C[C@@H]2CC[C@@H](C)[C@@](O)(O2)C(=O)C(=O)N2CCCC[C@H]2C(=O)O[C@H]([C@H](C)C[C@@H]2CC[C@@H](O)[C@H](OC)C2)CC(=O)[C@H](C)/C=C(\C)[C@@H](O)[C@@H](OC)C(=O)[C@H](C)C[C@H](C)/C=C/C=C/C=C/1C [rapamycin]
effect on basal glucose uptake (cardiac myocytes [4]; [15]): no effect

COC[C@H]1OC(=O)c2coc3c2[C@@]1(C)C1=C(C3=O)[C@@H]2CCC(=O)[C@@]2(C)C[C@H]1OC(C)=O [wortmannin]
inhibition of arsenite-induced p70 S6K phosphorylation (p70 S6K): completely blocked
effect on glucose uptake into giant vesicles [1]: did not alter
effect on basal LCFA uptake (cardiac myocytes [3]): no effect
effect on insulin-induced LCFA uptake (cardiac myocytes [3]): completely blocked
inhibition of insulin-induced Akt/PKB phosphorylation (Akt/PKB): completely blocked
effect on arsenite-stimulated glucose uptake (cardiac myocytes [4]): completely failed to inhibit
effect on basal glucose uptake (cardiac myocytes [4]): did not inhibit
effect on insulin-stimulated glucose uptake (cardiac myocytes [4]): largely blocked
inhibition of oligomycin-induced ACC phosphorylation (ACC [5]): unaltered
inhibition of phenylephrine-induced p42/44 ERK phosphorylation (p42/44 ERK): unaltered

sodium arsenite
effect on phosphorylation of AMPK (AMPK [10]): remained unaltered
increase in p70 S6K phosphorylation (p70 S6K; 20 min, 100 µM): 3.3 ± 0.7 fold
effect on glucose uptake into giant vesicles [1]: did not influence
increase in p38 MAPK phosphorylation (p38 MAPK [2]; 20 min): 7.8 ± 1.8 fold
effect on LCFA uptake into giant vesicles [11]: did not influence
content of GLUT4 in the LDM fraction decreased (GLUT4; 20 min): 44%
content of GLUT4 in the PM fraction increased (GLUT4; 20 min, 100 µM): 1.7 fold
contents of CD36 in the LDM- and PM fractions (CD36; 20 min): did not significantly influence
LCFA uptake (cardiac myocytes [3]): did not increase
effect of arsenite on LCFA uptake in combination with insulin or oligomycin (cardiac myocytes [3]): did not significantly alter
effect on Akt/PKB phosphorylation (Akt/PKB): did not stimulate
distribution of FABPpm between the LDM and the PM fraction (FABPpm; 20 min): did not significantly influence
deoxyglucose uptake (cardiac myocytes [4]): without a further increase
effect of arsenite on glucose uptake in combination with oligomycin (cardiac myocytes [4]): retained its stimulatory action
effect of arsenite on glucose uptake in insulin-stimulated cardiac myocytes (cardiac myocytes [4]): ineffective
deoxyglucose uptake stimulated (cardiac myocytes [4]; cardiac myocytes, 20 min, 100 µM): 5.1 fold
effect on phosphorylation of ACC (ACC [5]; 20 min): remained unaltered
increase in p42/44 ERK phosphorylation (p42/44 ERK; 20 min, 100 µM): 2.3 ± 0.5 fold
